#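 How tested: cells in 96-well plates exposed to compound for 48 hours at five concentrations. GI50 is the concentration that inhibits growth by half. TGI: total growth inhibition.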
# Key:
# Test in all cases: NCI-60 cell line screen, 48 h
# [1] = system: SK-MEL-2 melanoma
# [2] = system: HOP-92 NSCLC
# [3] = system: HCC-2998 colon
# [4] = system: UACC-62 melanoma
# [5] = system: COLO 205 colon
# [6] = system: HOP-62 NSCLC
# [7] = system: SF-295 CNS
# [8] = system: ACHN renal
# [9] = system: SF-268 CNS
# [10] = system: MOLT-4 leukemia
Structure (SMILES),TGI [1],TGI [2],TGI [3],TGI [4],TGI [5],TGI [6],TGI [7],TGI [8],TGI [9],TGI [10],GI50 [1],GI50 [10],GI50 [2],GI50 [4],GI50 [5],GI50 [6],GI50 [8],GI50 [9],GI50 [7],GI50 [3]
Cc1cc(Cl)ccc1OCC(=O)Oc1c(Cl)c(Cl)c(Cl)c(Cl)c1Cl,67.7 µM,40 µM,48.9 µM,46.6 µM,78 µM,47.2 µM,67.9 µM,> 100 µM,> 100 µM,,,,,,,,,,,
O=S(O)CCCCSSCCCCS(=O)(O)=S,> 100 µM,,> 100 µM,70.1 µM,> 100 µM,> 100 µM,> 100 µM,> 100 µM,> 100 µM,> 100 µM,,,,,,,,,,
COc1ccc(/C=C2/CCOC2=O)cc1,> 100 µM,> 100 µM,,> 100 µM,> 100 µM,> 100 µM,,> 100 µM,> 100 µM,> 100 µM,> 100 µM,> 100 µM,> 100 µM,> 100 µM,> 100 µM,> 100 µM,> 100 µM,> 100 µM,,
COc1ccc2c(CCNS(=O)(=O)c3ccccc3)c(C(C)=O)[nH]c2c1[N+](=O)[O-],> 100 µM,,> 100 µM,> 100 µM,> 100 µM,> 100 µM,> 100 µM,> 100 µM,> 100 µM,> 100 µM,,,,,,,,,,
CC(C)(C)OC(=O)N(CCCn1c2c(c3ccccc3c1=O)C(=O)c1ccccc1-2)CCN(CCCn1c2c(c3ccccc3c1=O)C(=O)c1ccccc1-2)C(=O)OC(C)(C)C,> 50 µM,> 50 µM,,> 50 µM,> 50 µM,> 50 µM,> 50 µM,48.9 µM,> 50 µM,16.1 µM,> 50 µM,4 µM,11.1 µM,45.3 µM,> 50 µM,19.8 µM,11.2 µM,23.8 µM,14 µM,
CC(=O)N1C(=O)C(=O)c2cc(Cl)ccc21,,,> 100 µM,> 100 µM,> 100 µM,,> 100 µM,> 100 µM,> 100 µM,> 100 µM,,,,,,,,,,
S=C(S)NCCCn1ccnc1,> 100 µM,> 100 µM,,> 100 µM,> 100 µM,> 100 µM,> 100 µM,> 100 µM,> 100 µM,> 100 µM,,,,,,,,,,
COc1cc([N+](=O)[O-])c(S(=O)(=O)O)cc1-n1nc(-c2ccccc2)n[n+]1-c1cc(S(=O)(=O)[O-])c([N+](=O)[O-])cc1OC,> 100 µM,,> 100 µM,> 100 µM,> 100 µM,> 100 µM,> 100 µM,> 100 µM,> 100 µM,> 100 µM,,,,,,,,,,
CC(C)c1cccc2sc(NC(=O)C(=O)CC(=O)c3ccc(F)cc3)nc12,> 100 µM,> 100 µM,,> 100 µM,> 100 µM,> 100 µM,> 100 µM,> 100 µM,> 100 µM,,,,,,,,,,,
COc1ccc2c3c([nH]c2c1[N+](=O)[O-])C(C)N(C(=O)/C=C/c1ccccc1)CC3 (stereo not given),> 100 µM,,> 100 µM,9.06 µM,> 100 µM,70.4 µM,5.88 µM,> 100 µM,4.75 µM,> 100 µM,,,,,,,,,,
CP(=O)(CCSc1ccccc1)c1ccccc1 (stereo not given),,> 100 µM,> 100 µM,> 100 µM,> 100 µM,> 100 µM,> 100 µM,> 100 µM,> 100 µM,> 100 µM,,,,,,,,,,
O=C(O)C1(C(=O)O)CCN(S(=O)(=O)c2ccccc2)CC1,> 100 µM,> 100 µM,,> 100 µM,> 100 µM,> 100 µM,> 100 µM,> 100 µM,> 100 µM,> 100 µM,,,,,,,,,,
CC1=C(CC/C(C)=C/CCC2(C)CCC([C@H](C)C(=O)O)OO2)C(C)(C)CCC1 (stereo not given in full) (tested in a mixture with another compound),> 100 µM,> 100 µM,> 100 µM,,> 100 µM,> 100 µM,> 100 µM,> 100 µM,> 100 µM,,,,,,,,,,,
Cn1c(-c2c(N)n(Cc3ccc(Cl)cc3)c3nc(C#N)c(C#N)nc23)nc2ccccc21,> 50 µM,10.1 µM,3.57 µM,9.71 µM,16.4 µM,> 50 µM,40.5 µM,6.38 µM,> 50 µM,,> 50 µM,,2.35 µM,2.26 µM,3.13 µM,11.7 µM,1.5 µM,16.3 µM,6.28 µM,1.08 µM
O=C(/C=C/c1ccccc1)c1ccc(O)c(CN2CCN(c3cc4c(cc3F)c(=O)c(C(=O)O)cn4C3CC3)CC2)c1,> 100 µM,,53.6 µM,> 100 µM,74.5 µM,> 100 µM,26.1 µM,13.9 µM,> 100 µM,,3.3 µM,,,1.67 µM,3.86 µM,3.22 µM,1.9 µM,2.53 µM,2.05 µM,3.11 µM
NC(N)=NS(=O)(=O)c1ccc(NC(=O)c2ccc(Cl)c3c(Nc4ccc(S(=O)(=O)N=C(N)N)cc4)c4ccccc4nc23)cc1,> 100 µM,79.9 µM,,> 100 µM,> 100 µM,> 100 µM,> 100 µM,> 100 µM,> 100 µM,> 100 µM,,,,,,,,,,
CCOc1ccc2c(-c3ccnc(Nc4cccc(C(F)(F)F)c4)n3)cnn2n1,,24 µM,> 25 µM,> 25 µM,> 25 µM,> 25 µM,> 25 µM,> 25 µM,> 19.6 µM,> 25 µM,,> 25 µM,5.05 µM,11.5 µM,> 25 µM,> 21 µM,16.3 µM,7.87 µM,> 25 µM,22.4 µM
CN1C(=O)NC2(O)c3ccccc3C(=O)C12O (stereo not given),> 100 µM,> 100 µM,,> 100 µM,> 100 µM,,> 100 µM,,> 100 µM,> 100 µM,,,,,,,,,,
c1ccc(CN2CCC3(CC2)ONC2=NCCN23)cc1,> 100 µM,59.1 µM,,> 100 µM,> 100 µM,> 100 µM,> 100 µM,> 100 µM,> 100 µM,> 100 µM,> 100 µM,47.3 µM,29.3 µM,70.8 µM,50.4 µM,> 100 µM,49.7 µM,89.8 µM,> 100 µM,

# Source: PubChem BioAssay (NCI)
